From patent publication US20230265151A1, “GIP/GLP1 CO-AGONIST COMPOUNDS” (priority 2020, published 2023)
Read-outs that look alike come from different tables or passages of the source.

How the values were obtained:
Assay type in all cases: cell-based
hGCGR = target: T1, hGCGR (Homo sapiens, UniProt P47871); assay: Functional cAMP formation (HTRF) in HEK-293 clonal cells expressing hGCGR, 0.1% bovine casein, without or with 1.0% human serum albumin; conditions: geometric mean
T1 construct: expressed in transfected cells
T1 sequence (P47871 26-477): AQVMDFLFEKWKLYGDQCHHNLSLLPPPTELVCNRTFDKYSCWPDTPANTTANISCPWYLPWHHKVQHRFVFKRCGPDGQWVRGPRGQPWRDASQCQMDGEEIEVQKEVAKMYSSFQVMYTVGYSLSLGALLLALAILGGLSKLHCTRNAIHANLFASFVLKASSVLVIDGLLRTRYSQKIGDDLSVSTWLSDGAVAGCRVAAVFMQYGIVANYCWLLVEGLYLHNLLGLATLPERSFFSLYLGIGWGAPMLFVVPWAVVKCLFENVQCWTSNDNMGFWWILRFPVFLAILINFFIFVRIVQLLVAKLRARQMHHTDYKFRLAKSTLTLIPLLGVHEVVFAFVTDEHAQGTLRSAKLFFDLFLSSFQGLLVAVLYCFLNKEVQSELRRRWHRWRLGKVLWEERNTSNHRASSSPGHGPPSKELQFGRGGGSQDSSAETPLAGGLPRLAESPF
Summary of the method: (§1)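 Cells were stimulated with peptide for 30 min at 37° C, then intracellular cAMP was measured by competitive HTRF (665/620 nm ratio) and converted to nM using a cAMP standard curve. Relative EC50 and Emax came from four-parameter logistic fits of percent maximal response against peptide concentration.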

hGLP-1R = hGLP-1R (Homo sapiens, UniProt P43220); assay: Functional cAMP formation (HTRF) in HEK-293 clonal cells expressing hGLP-1R, 0.1% bovine casein, without or with 1.0% human serum albumin; parameters: expressed in transfected cells; conditions: for EC50: geometric mean, read-out: hGLP-1R EC50, nM (SEM, n)
hGLP-1R, sequence (P43220 24-463): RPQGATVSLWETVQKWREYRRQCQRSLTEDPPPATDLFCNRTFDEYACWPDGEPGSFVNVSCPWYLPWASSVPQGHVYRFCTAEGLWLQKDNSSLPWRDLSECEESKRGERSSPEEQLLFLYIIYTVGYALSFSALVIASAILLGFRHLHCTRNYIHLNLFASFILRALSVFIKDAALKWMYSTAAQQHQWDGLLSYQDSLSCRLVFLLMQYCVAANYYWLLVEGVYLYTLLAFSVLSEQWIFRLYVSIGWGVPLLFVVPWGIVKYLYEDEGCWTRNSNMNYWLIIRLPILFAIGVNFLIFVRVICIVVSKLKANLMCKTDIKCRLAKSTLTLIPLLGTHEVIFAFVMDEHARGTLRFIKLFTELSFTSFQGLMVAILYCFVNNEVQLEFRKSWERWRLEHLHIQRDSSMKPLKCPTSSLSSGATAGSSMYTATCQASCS
Summary of the method: as §1

hGIPR = target: T2, hGIPR (Homo sapiens, UniProt P48546); assay: Functional cAMP formation (HTRF) in HEK-293 clonal cells expressing hGIPR, 0.1% bovine casein, without or with 1.0% human serum albumin; conditions: for EC50: geometric mean
T2 construct: expressed in transfected cells
T2 sequence (P48546 22-466): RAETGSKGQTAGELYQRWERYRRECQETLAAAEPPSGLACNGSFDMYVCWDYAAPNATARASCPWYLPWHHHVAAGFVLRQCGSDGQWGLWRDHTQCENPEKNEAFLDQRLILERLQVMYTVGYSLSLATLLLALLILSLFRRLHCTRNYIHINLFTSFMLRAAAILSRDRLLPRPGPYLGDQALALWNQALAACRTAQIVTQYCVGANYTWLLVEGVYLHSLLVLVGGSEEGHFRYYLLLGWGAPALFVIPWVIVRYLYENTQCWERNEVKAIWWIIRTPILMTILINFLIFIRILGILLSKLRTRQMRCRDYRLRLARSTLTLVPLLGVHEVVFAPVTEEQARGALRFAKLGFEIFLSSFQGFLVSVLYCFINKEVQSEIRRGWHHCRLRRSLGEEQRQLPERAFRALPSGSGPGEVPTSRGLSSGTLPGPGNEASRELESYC
Summary of the method: as §1

[1] = 0.1% bovine casein and 1.0% human serum albumin, 37° C., read-out: hGCGR EC50, nM (SEM, n)
[2] = cAMP, incubated at 37° C., 0.1% bovine casein (no human serum albumin), read-out: hGCGR EC50, nM (SEM, n)
[3] = 0.1% bovine casein and 1.0% human serum albumin, 37° C.
[4] = HEK293, 0.1% bovine casein and 1.0% human serum albumin, 37° C., percent of maximal response to GLP-1(7-36)NH2, read-out: hGLP-1R Emax, % ± SEM
[5] = HEK293, percent of maximal response to GLP-1(7-36)NH2, 37° C., 0.1% bovine casein, arithmetic mean, read-out: hGLP-1R Emax, % ± SEM
[6] = cAMP, incubated at 37° C., 0.1% bovine casein (no human serum albumin)
[7] = HEK293, 0.1% bovine casein and 1.0% human serum albumin, 37° C., percent of maximal response to GIP(1-42)NH2, read-out: hGIPR Emax, % ± SEM
[8] = HEK293, percent of maximal response to GIP(1-42)NH2, 37° C., 0.1% bovine casein, arithmetic mean, read-out: hGIPR Emax, % ± SEM
[9] = cAMP, incubated at 37° C., 0.1% bovine casein (no human serum albumin), read-out: hGIPR EC50, nM (SEM, n)
[10] = 0.1% bovine casein and 1.0% human serum albumin, 37° C., read-out: hGIPR EC50, nM (SEM, n)

CC[C@H](C)[C@H](NC(=O)[C@H](CCCN)NC(=O)[C@H](CC(=O)O)NC(=O)[C@H](CC(C)C)NC(=O)[C@](C)(CC(C)C)NC(=O)[C@@H](NC(=O)[C@H](CO)NC(=O)[C@H](Cc1ccncc1)NC(=O)[C@H](CC(=O)O)NC(=O)[C@H](CO)NC(=O)[C@@H](NC(=O)[C@](C)(Cc1ccccc1F)NC(=O)[C@@H](NC(=O)CNC(=O)[C@H](CCC(=O)O)NC(=O)C(C)(C)NC(=O)[C@@H](N)Cc1ccc(O)cc1)[C@@H](C)O)[C@@H](C)O)[C@@H](C)CC)C(=O)N[C@@H](C)C(=O)N[C@@H](CCC(N)=O)C(=O)NC(C)(C)C(=O)N[C@@H](CCC(=O)O)C(=O)N[C@@H](Cc1ccccc1)C(=O)N[C@H](C(=O)N[C@@H](CCCCNC(=O)COCCOCCNC(=O)COCCOCCNC(=O)CCCCCCCCCCCCC(=O)O)C(=O)N[C@@](C)(Cc1ccc(O)cc1)C(=O)N[C@@H](CC(C)C)C(=O)N[C@H](C(=O)N[C@@H](CCCCNC(=O)COCCOCCNC(=O)COCCOCCNC(=O)CCCCCCCCCCCCC(=O)O)C(=O)NCC(=O)NCC(=O)N1CCC[C@H]1C(=O)N[C@@H](CO)C(=O)N[C@@H](CO)C(=O)NCC(=O)N[C@@H](C)C(=O)N1CCC[C@H]1C(=O)N1CCC[C@H]1C(=O)N1CCC[C@H]1C(=O)N[C@@H](CO)C(N)=O)[C@@H](C)CC)[C@@H](C)CC [Example 192]
EC50 (hGCGR; [1]): > 9950 nM
EC50 (hGCGR; [2]): > 9950 nM
EC50 (hGLP-1R; [3]): 11.2 nM
Emax (hGLP-1R; [4]): 121 ± 2.56%
Emax (hGLP-1R; [5]): 100 ± 2.34%
EC50 (hGLP-1R; [6]): 0.518 nM
Emax (hGIPR; [7]): 93.6 ± 3.98%
Emax (hGIPR; [8]): 96.5 ± 4.86%
EC50 (hGIPR; [9]): 0.0375 nM

CC[C@H](C)[C@H](NC(=O)[C@H](CCCN)NC(=O)[C@H](CC(=O)O)NC(=O)[C@H](CC(C)C)NC(=O)[C@](C)(CC(C)C)NC(=O)[C@@H](NC(=O)[C@H](CO)NC(=O)[C@H](Cc1ccncc1)NC(=O)[C@H](CC(=O)O)NC(=O)[C@H](CO)NC(=O)[C@@H](NC(=O)[C@](C)(Cc1ccccc1F)NC(=O)[C@@H](NC(=O)CNC(=O)[C@H](CCC(=O)O)NC(=O)C(C)(C)NC(=O)[C@@H](N)Cc1ccc(O)cc1)[C@@H](C)O)[C@@H](C)O)[C@@H](C)CC)C(=O)N[C@@H](C)C(=O)N[C@@H](CCC(N)=O)C(=O)NC(C)(C)C(=O)N[C@@H](CCC(=O)O)C(=O)N[C@@H](Cc1ccccc1)C(=O)N[C@H](C(=O)N[C@@H](CCCCNC(=O)COCCOCCNC(=O)COCCOCCNC(=O)CCCCCCCCCCCCC(=O)O)C(=O)N[C@@](C)(Cc1ccc(O)cc1)C(=O)N[C@@H](CC(C)C)C(=O)N[C@H](C(=O)N[C@@H](CCC(=O)O)C(=O)NCC(=O)NCC(=O)N[C@@H](CCCCNC(=O)COCCOCCNC(=O)COCCOCCNC(=O)CCCCCCCCCCCCC(=O)O)C(=O)N[C@@H](CO)C(=O)N[C@@H](CO)C(=O)NCC(=O)N[C@@H](C)C(=O)N1CCC[C@H]1C(=O)N1CCC[C@H]1C(=O)N1CCC[C@H]1C(=O)N[C@@H](CO)C(N)=O)[C@@H](C)CC)[C@@H](C)CC [Example 193]
EC50 (hGCGR; [1]): > 9950 nM
EC50 (hGCGR; [2]): > 9950 nM
EC50 (hGLP-1R; [3]): 24.3 nM
EC50 (hGLP-1R; [6]): 0.382 nM
Emax (hGIPR; [7]): 92.2 ± 0.24%
Emax (hGIPR; [8]): 97.2 ± 4.63%
EC50 (hGIPR; [9]): 0.0201 nM

CC[C@H](C)[C@H](NC(=O)[C@H](CCCN)NC(=O)[C@H](CC(=O)O)NC(=O)[C@H](CC(C)C)NC(=O)[C@](C)(CC(C)C)NC(=O)[C@@H](NC(=O)[C@H](CO)NC(=O)[C@H](Cc1ccncc1)NC(=O)[C@H](CC(=O)O)NC(=O)[C@H](CO)NC(=O)[C@@H](NC(=O)[C@](C)(Cc1ccccc1F)NC(=O)[C@@H](NC(=O)CNC(=O)[C@H](CCC(=O)O)NC(=O)C(C)(C)NC(=O)[C@@H](N)Cc1ccc(O)cc1)[C@@H](C)O)[C@@H](C)O)[C@@H](C)CC)C(=O)N[C@@H](C)C(=O)N[C@@H](CCC(N)=O)C(=O)NC(C)(C)C(=O)N[C@@H](CCC(=O)O)C(=O)N[C@@H](Cc1ccccc1)C(=O)N[C@H](C(=O)N[C@@H](CCCCNC(=O)COCCOCCNC(=O)COCCOCCNC(=O)CCCCCCCCCCCCC(=O)O)C(=O)N[C@@](C)(Cc1ccc(O)cc1)C(=O)N[C@@H](CC(C)C)C(=O)N[C@H](C(=O)N[C@@H](CCC(=O)O)C(=O)NCC(=O)NCC(=O)N1CCC[C@H]1C(=O)N[C@@H](CO)C(=O)N[C@@H](CO)C(=O)NCC(=O)N[C@@H](C)C(=O)N1CCC[C@H]1C(=O)N1CCC[C@H]1C(=O)N1CCC[C@H]1C(=O)N[C@@H](CO)C(=O)N[C@@H](CCCCNC(=O)COCCOCCNC(=O)COCCOCCNC(=O)CCCCCCCCCCCCC(=O)O)C(N)=O)[C@@H](C)CC)[C@@H](C)CC [Example 194]
EC50 (hGCGR; hGCGR EC50, nM (SEM, n), 0.1% bovine casein and 1.0% human serum albumin, 37° C.): > 9950 nM
EC50 (hGCGR; hGCGR EC50, nM (SEM, n), cAMP, incubated at 37° C., 0.1% bovine casein (no human serum albumin)): > 9950 nM
Emax (hGLP-1R; HEK293, read-out: hGLP-1R Emax, % ± SEM, 0.1% bovine casein and 1.0% human serum albumin, 37° C., percent of maximal response to GLP-1(7-36)NH2): 109 ± 10.5%
Emax (hGIPR; HEK293, read-out: hGIPR Emax, % ± SEM, 0.1% bovine casein and 1.0% human serum albumin, 37° C., percent of maximal response to GIP(1-42)NH2): 80.7 ± 7.81%
Emax (hGIPR; HEK293, read-out: hGIPR Emax, % ± SEM, percent of maximal response to GIP(1-42)NH2, 37° C., 0.1% bovine casein, arithmetic mean): 93.1 ± 1.05%
EC50 (hGIPR; hGIPR EC50, nM (SEM, n), 0.1% bovine casein and 1.0% human serum albumin, 37° C.): 1.24 nM

CC[C@H](C)[C@H](NC(=O)[C@H](CCCN)NC(=O)[C@H](CC(=O)O)NC(=O)[C@H](CC(C)C)NC(=O)[C@](C)(CC(C)C)NC(=O)[C@@H](NC(=O)[C@H](CO)NC(=O)[C@H](Cc1ccncc1)NC(=O)[C@H](CC(=O)O)NC(=O)[C@H](CO)NC(=O)[C@@H](NC(=O)[C@](C)(Cc1ccccc1F)NC(=O)[C@@H](NC(=O)CNC(=O)[C@H](CCC(=O)O)NC(=O)C(C)(C)NC(=O)[C@@H](N)Cc1ccc(O)cc1)[C@@H](C)O)[C@@H](C)O)[C@@H](C)CC)C(=O)N[C@@H](C)C(=O)N[C@@H](CCC(N)=O)C(=O)NC(C)(C)C(=O)N[C@@H](CCCCNC(=O)COCCOCCNC(=O)COCCOCCNC(=O)CCCCCCCCCCCCC(=O)O)C(=O)N[C@@H](Cc1ccccc1)C(=O)N[C@H](C(=O)N[C@H](CCC(=O)O)C(=O)N[C@@](C)(Cc1ccc(O)cc1)C(=O)N[C@@H](CC(C)C)C(=O)N[C@H](C(=O)N[C@@H](CCC(=O)O)C(=O)NCC(=O)NCC(=O)N[C@@H](CCCCNC(=O)COCCOCCNC(=O)COCCOCCNC(=O)CCCCCCCCCCCCC(=O)O)C(=O)N[C@@H](CO)C(=O)N[C@@H](CO)C(=O)NCC(=O)N[C@@H](C)C(=O)N1CCC[C@H]1C(=O)N1CCC[C@H]1C(=O)N1CCC[C@H]1C(=O)N[C@@H](CO)C(N)=O)[C@@H](C)CC)[C@@H](C)CC [Example 195]
EC50 (hGCGR; [1]): > 9950 nM
EC50 (hGCGR; [2]): > 9950 nM
EC50 (hGLP-1R; [3]): 14 nM
EC50 (hGLP-1R; [6]): 0.343 nM
EC50 (hGIPR; [10]): 0.771 nM
Emax (hGIPR; [7]): 87 ± 12.2%
Emax (hGIPR; [8]): 88.5 ± 4.32%
EC50 (hGIPR; [9]): 0.0219 nM

CC[C@H](C)[C@H](NC(=O)[C@H](CCCN)NC(=O)[C@H](CC(=O)O)NC(=O)[C@H](CC(C)C)NC(=O)[C@](C)(CC(C)C)NC(=O)[C@@H](NC(=O)[C@H](CO)NC(=O)[C@H](Cc1ccncc1)NC(=O)[C@H](CC(=O)O)NC(=O)[C@H](CO)NC(=O)[C@@H](NC(=O)[C@](C)(Cc1ccccc1F)NC(=O)[C@@H](NC(=O)CNC(=O)[C@H](CCC(=O)O)NC(=O)C(C)(C)NC(=O)[C@@H](N)Cc1ccc(O)cc1)[C@@H](C)O)[C@@H](C)O)[C@@H](C)CC)C(=O)N[C@@H](C)C(=O)N[C@@H](CCC(N)=O)C(=O)NC(C)(C)C(=O)N[C@@H](CCCCNC(=O)COCCOCCNC(=O)COCCOCCNC(=O)CCCCCCCCCCCCC(=O)O)C(=O)N[C@@H](Cc1ccccc1)C(=O)N[C@H](C(=O)N[C@H](CCC(=O)O)C(=O)N[C@@](C)(Cc1ccc(O)cc1)C(=O)N[C@@H](CC(C)C)C(=O)N[C@H](C(=O)N[C@@H](CCC(=O)O)C(=O)NCC(=O)NCC(=O)N1CCC[C@H]1C(=O)N[C@@H](CO)C(=O)N[C@@H](CO)C(=O)NCC(=O)N[C@@H](C)C(=O)N1CCC[C@H]1C(=O)N1CCC[C@H]1C(=O)N1CCC[C@H]1C(=O)N[C@@H](CO)C(=O)N[C@@H](CCCCNC(=O)COCCOCCNC(=O)COCCOCCNC(=O)CCCCCCCCCCCCC(=O)O)C(N)=O)[C@@H](C)CC)[C@@H](C)CC [Example 196]
EC50 (hGCGR; [1]): > 9950 nM
EC50 (hGCGR; [2]): > 9950 nM
EC50 (hGLP-1R; [3]): 21.4 nM
Emax (hGLP-1R; [4]): 112 ± 4.62%
Emax (hGLP-1R; [5]): 96.8 ± 2.59%
EC50 (hGLP-1R; [6]): 0.356 nM
EC50 (hGIPR; [10]): 0.712 nM
Emax (hGIPR; [7]): 80.8 ± 0.269%
Emax (hGIPR; [8]): 96 ± 2.1%
EC50 (hGIPR; [9]): 0.0232 nM
